For series [1] the following is noted: cited from earlier work. From the text:
In Japan, CVVHDF is preferentially performed with lower flow rates. Investigating effects of flow rate on DAP removal during co ...

Series [2] is described as follows: Pharmacokinetics of daptomycin in patients undergoing low-flow CVVHDF. Type of series: in vivo, human. The conditions noted are these: 6 mg/kg i.v. every 48 hours, HPLC; for AUC / half-life: 6 mg/kg; for AUC: read-out: area under the concentration-time curve (AUC); for half-life: read-out: elimination half-life (t1/2) (converted). Here is the method: DAP (6 mg/kg) was administered intravenously every 48 hours to CVVHDF patients in the ICU. Blood and filtrate samples were collected at 0, 1, 1.5, 2, 5, 12, 24, and 48 hours after infusion. All collected samples were analyzed using HPLC according to the method of Tobin et al.. Maximum concentration (Cmax), elimination half-life (t1/2), area AUC, Cmin, volume of distribution (Vd), clearance (CL), fraction unbound, and sieving coefficient (Sc) were evaluated. Patient characteristics and CVVHDF parameters including blood, dialysate, and filtration flow rates were recorded.

Setting [3] is: low-flow CVVHDF, blood and filtrate samples, mean of three patients.
[4] abbreviates: human, blood, iv, low-flow CVVHDF, single patient, first listed.
The mark [5] stands for this setting: human, blood, iv, low-flow CVVHDF, single patient, second listed.
Setting [6] is: human, blood, iv, low-flow CVVHDF, single patient, third listed.

Where two headings read alike, the source gives them in different places.

Turning to `CCCCCCCCCC(=O)N[C@@H](Cc1c[nH]c2ccccc12)C(=O)N[C@H](CC(N)=O)C(=O)N[C@@H](CC(=O)O)C(=O)N[C@@H]1C(=O)NCC(=O)N[C@@H](CCCN)C(=O)N[C@@H](CC(=O)O)C(=O)N[C@H](C)C(=O)N[C@@H](CC(=O)O)C(=O)NCC(=O)N[C@H](CO)C(=O)N[C@@H]([C@H](C)CC(=O)O)C(=O)N[C@@H](CC(=O)c2ccccc2N)C(=O)O[C@@H]1C` [DAP, daptomycin], the “AUC/MIC required to obtain clinical success” value in series [1] was 1,061 mg hour/l. Also, the “trough serum concentration (Cmin)” value in series [2] (low-flow CVVHDF, single patient, first listed) is 2.3 µg/mL; in series [2] (low-flow CVVHDF, single patient, second listed), 24.7 µg/mL; in series [2] (low-flow CVVHDF, single patient, third listed), 14.0 µg/mL. The CL of dialyzer in series [2] (setting [3]) was 1.20 ± 0.39 mL/min; in series [2] (low-flow CVVHDF, blood and filtrate samples, single patient, first listed), 1.70 mL/min; in series [2] (low-flow CVVHDF, blood and filtrate samples, single patient, second listed), 0.88 mL/min; in series [2] (low-flow CVVHDF, blood and filtrate samples, single patient, third listed), 0.96 mL/min. Besides, the “sieving coefficient (Sc)” value in series [2] (setting [3]) was determined as 0.08 ± 0.03. The AUC came out at 471 µg·h/mL in series [2] (setting [4]), 967 µg·h/mL in series [2] (setting [5]) and 1260 µg·h/mL in series [2] (setting [6]). The results for the half-life in series [2] (setting [4]), in series [2] (setting [5]) and in series [2] (setting [6]) were 18.6 h, 11.5 h and 70.5 h, respectively. The same compound gave a fraction unbound in series [2] (human, blood, iv, ICU patients on low-flow CVVHDF, mean of three patients) of 0.058. The clearance in series [2] (human, blood, iv, ICU patients on low-flow CVVHDF, mean of three patients, read-out: clearance (CL)) was 9.47 ± 4.56 mL/min. Also, the volume of distribution (Vd) in series [2] (human, blood, iv, ICU patients on low-flow CVVHDF, mean of three patients, read-out: volume of distribution (Vd)) came out at 26 ± 20.9 L. Further, in series [2] (human, iv, ICU patients on low-flow CVVHDF, blood samples 0-48 hours, mean of three patients, read-out: Maximum concentration (Cmax)), the Cmax was determined as 50.1 ± 12.7 µg/mL.

What is called fraction unbound is the share of the substance not bound to proteins or other matrix. As a reminder, the clearance is the volume of plasma or blood freed of the substance per unit of time. One may read the Vd as a proportionality between amount in the body and measured concentration, not a real space.

Values taken from paper PMC4472624, “Pharmacokinetics of daptomycin in patients undergoing low-flow continuous venovenous hemodiafiltration” (Critical Care, 2015).
